Laboratory results published in US20200079766A1, “MONOCYCLIC OGA INHIBITOR COMPOUNDS” (Janssen Pharmaceutica NV, priority 2016, published 2020).
Read-outs that look alike come from different tables or passages of the source.

Molecular target: T1, recombinant human Meningioma Expressed Antigen 5 (MGEA5), also referred to as O-GlcNAcase (OGA) (Homo sapiens, UniProt O60502)
T1 construct: Full length OGA enzyme was purchased at OriGene (cat # TP322411); purchased OriGene TP322411
T1 sequence (O60502 1-916): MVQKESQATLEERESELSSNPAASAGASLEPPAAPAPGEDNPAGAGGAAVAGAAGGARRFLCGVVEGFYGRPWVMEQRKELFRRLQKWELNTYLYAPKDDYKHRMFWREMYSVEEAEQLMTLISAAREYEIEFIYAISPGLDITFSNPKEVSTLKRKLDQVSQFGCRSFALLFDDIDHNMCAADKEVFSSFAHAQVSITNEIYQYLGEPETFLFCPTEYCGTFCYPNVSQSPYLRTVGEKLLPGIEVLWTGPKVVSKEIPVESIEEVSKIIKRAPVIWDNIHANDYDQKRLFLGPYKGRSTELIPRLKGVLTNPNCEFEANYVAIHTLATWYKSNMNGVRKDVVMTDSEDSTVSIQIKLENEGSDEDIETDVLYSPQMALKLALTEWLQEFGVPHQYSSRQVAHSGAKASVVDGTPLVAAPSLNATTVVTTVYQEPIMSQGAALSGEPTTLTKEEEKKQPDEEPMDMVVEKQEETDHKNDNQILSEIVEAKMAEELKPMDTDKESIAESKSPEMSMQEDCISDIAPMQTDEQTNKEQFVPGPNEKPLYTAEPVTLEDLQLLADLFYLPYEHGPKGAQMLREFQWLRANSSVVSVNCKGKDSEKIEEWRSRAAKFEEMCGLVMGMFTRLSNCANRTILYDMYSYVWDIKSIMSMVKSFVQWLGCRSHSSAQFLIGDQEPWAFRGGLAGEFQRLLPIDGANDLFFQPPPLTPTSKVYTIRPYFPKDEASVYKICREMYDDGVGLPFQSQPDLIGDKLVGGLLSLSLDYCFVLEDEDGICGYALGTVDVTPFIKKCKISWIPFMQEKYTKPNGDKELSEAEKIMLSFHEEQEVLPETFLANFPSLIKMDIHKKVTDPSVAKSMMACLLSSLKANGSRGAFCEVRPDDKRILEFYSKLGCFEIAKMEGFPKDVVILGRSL
Test: OGA biochemical assay: inhibition of FM-GlcNAc hydrolysis, fluorescence; protocol A (10 nM OGA, 1 h) or protocol B (2 nM OGA, 6 h)
Settings: for IC50: read-out: Enzymatic hOGA, pIC50 (converted)
Description: The assay is based on the inhibition of the hydrolysis of fluorescein mono-3-D-N-Acetyl-Glucosamine (FM-GlcNAc) (Mariappa et al. 2015, Biochem J 470:255) by the recombinant human Meningioma Expressed Antigen 5 (MGEA5), also referred to as O-GlcNAcase (OGA). The hydrolysis FM-GlcNAc (Marker Gene technologies, cat # M1485) results in the formation of ß-D-N-glucosamineacetate and fluorescein. The fluorescence of the latter can be measured at excitation wavelength 485 nm and emission wavelength 538 nm. An increase in enzyme activity results in an increase in fluorescence signal. Full length OGA enzyme was purchased at OriGene (cat # TP322411). The enzyme was stored in 25 mM Tris.HCl, pH 7.3, 100 mM glycine, 10% glycerol at −20° C. Thiamet G and GlcNAcStatin were tested as reference compounds (Yuzwa et al. 2008 Nature Chemical Biology 4:483; Yuzwa et al. 2012 Nature Chemical Biology 8:393). The assay was performed in 200 mM Citrate/phosphate buffer supplemented with 0.005% Tween-20. 35.6 g Na2HPO42H2O (Sigma, # C0759) were dissolved in 1 L water to obtain a 200 mM solution. 19.2 g citric acid (Merck, #1.06580) was dissolved in 1 L water to obtain a 100 mM solution. pH of the sodiumphosphate solution was adjusted with the citric acid solution to 7.2. The buffer to stop the reaction consists of a 500 mM Carbonate buffer, pH 11.0. 734 mg
FM-GlcNAc were dissolved in 5.48 mL DMSO to obtain a 250 mM solution and was stored at −20° C. OGA was used at a 10 nM (protocol A) or 2 nM (protocol B) concentration and FM-GlcNAc at a 100 uM final concentration. Dilutions were prepared in assay buffer.
50 nl of a compound dissolved in DMSO was dispensed on Black Proxiplate™ 384 Plus Assay plates (Perkin Elmer, #6008269) and 3 μl fl-OGA enzyme mix added subsequently. Plates were pre-incubated for 60 min at room temperature and then 2 μl FM-GlcNAc substrate mix added. […] Plates were briefly centrifuged for 1 min at 1000 rpm and incubate at room temperature for 1 h (10 nM OGA, protocol A) or 6 h (2 nM OGA, protocol B). To stop the reaction 5 μl STOP buffer were added and plates centrifuge again 1 min at 1000 rpm. Fluorescence was quantified in the Thermo Scientific Fluoroskan Ascent or the PerkinElmer EnVision with excitation wavelength 485 nm and emission wavelength 538 nm.
For analysis a best-fit curve is fitted by a minimum sum of squares method. From this an IC50 value and Hill coefficient was obtained. High control (no inhibitor) and low control (saturating concentrations of standard inhibitor) were used to define the minimum and maximum values.

[1] = Enzymatic protocol A (10 nM OGA, 1 h)
[2] = Enzymatic protocol B (2 nM OGA, 6 h)

| Emax [2] [%] | IC50 [2] [µM] | SMILES | further results |
| --- | --- | --- | --- |
| 101 | 0.0135 | CC(=O)Nc1ncc(CN2CCCC(N(C)c3cc(C)nc(C)c3)C2)s1 (centres unmarked) [compound 32] |  |
|  | 0.977 | CC(=O)Nc1ncc(CN2CCCC(c3cc(C)nc(C)c3)C2)s1 (single isomer, unassigned) [compound 131] | Enzymatic Emax (%) [2]: 85.38% |
| 101 | 0.0631 | CC(=O)Nc1ncc(CN2CCCC(OCc3cc(C)nc(C)c3)C2)s1 (centres unmarked) [compound 21] |  |
| 101 | 0.0501 | CC(=O)Nc1ncc(CN2CCC[C@@H](Nc3cc(C)nc(C)c3)C2)s1 [compound 8] |  |
| 99.8 | 0.214 | CC(=O)Nc1ncc(CN2CC[C@@H](Nc3cc(C)nc(C)c3)C2)s1 [compound 22] |  |
| 91.9 | 1.23 | CC(=O)Nc1ncc(CN2CCCC(COc3cc(C)nc(C)c3)C2)[nH]1 (centres unmarked) [compound 120] |  |
| 100 | 0.0871 | CC(=O)Nc1ncc(CN2CCC[C@@H](Cc3cc(C)nc(C)c3)[C@H]2C)s1 (racemic) [compound 169] |  |
| 50.5 |  | CC(=O)Nc1ncc(S(=O)(=O)N2CCC(c3ccc(C)nc3)C2)s1 (centres unmarked) [compound 4] |  |
| 43 | > 10 | CC(=O)Nc1ncc(S(=O)(=O)N2CCC(c3ccnc(C)c3)C2)s1 (centres unmarked) [compound 3] | Emax [1]: 15%; IC50 [1]: > 10 µM |
| 100 | 0.0813 | CC(=O)Nc1ncc(CN2CCC[C@@H](Cc3cc(C)nc(C)c3)[C@H]2C)s1 (single isomer, unassigned) [compound 170] |  |
| 101 | 0.158 | CC(=O)Nc1ncc(CN2CC[C@H](Nc3cc(C)nc(C)c3)C2)s1 [compound 23] |  |
| 91.9 | 1.23 | CC(=O)Nc1ncc(CN2CCCC(COc3cc(C)nc(C)c3)C2)[nH]1 (racemic) [compound 132] |  |

Continued, compound first:

| SMILES | Emax [2] [%] | IC50 [2] [µM] | further results |
| --- | --- | --- | --- |
| CC(=O)Nc1ncc(CN2CCCC(c3ccccc3)C2)s1 (centres unmarked) [compound 5, reference compound] |  |  | Emax [1]: 102%; IC50 [1]: 0.141 µM |
| Cc1cc([C@@H]2CCCN([C@@H](C)c3ccc4sc(C)nc4c3)C2)cc(C)n1 [compound 116] | 79.2 | 3.47 |  |
| Cc1cc(N[C@@H]2CCCN(Cc3ccc4nccnc4c3)C2)cc(C)n1 [compound 10] | 85.6 | 1.66 |  |
| Cc1cc(C[C@H]2CCCN(Cc3cc4ccccc4n3C)C2)cc(C)n1 [compound 150] | 20.8 | > 10 |  |
| CC(=O)Nc1ncc(CN2CC[C@H](Cc3cncnc3)C2)s1 [compound 55] | 99.8 | 0.055 |  |
| Cc1cc(C[C@H]2CCN(C(C)c3nc4ccccc4[nH]3)C2)cc(C)n1 (mixture of isomers) [compound 78] | 8.78 | > 10 |  |
| CC(=O)Nc1ncc(CN2CCC(F)C(COc3cc(C)nc(C)n3)C2)s1 (centres unmarked) [compound 163] | 101 | 0.0631 |  |
| CC(=O)Nc1ncc(CN2C[C@@H](Cc3cc(C)nc(C)c3)CC[C@@H]2C)s1 (racemic) [compound 165] | 100 | 0.00224 |  |
| CC(=O)Nc1ncc(S(=O)(=O)N2CCCC(Oc3cc(C)nc(C)c3)C2)s1 (centres unmarked) [compound 1] |  |  | Emax [1]: 96.3%; IC50 [1]: 0.661 µM |
| CC(=O)Nc1ncc(S(=O)(=O)N2CCCC(Oc3ccnc(C)c3)C2)s1 (centres unmarked) [compound 2] |  |  | Emax [1]: 89%; IC50 [1]: 1.05 µM |
| CC(=O)Nc1ncc(CN2CCC(F)(F)C(COc3cc(C)nc(C)n3)C2)s1 (centres unmarked) [compound 162] | 91 | 1.05 |  |
| Cc1cc(CC2CCCN(C(C)c3nc4ccccc4[nH]3)C2)cc(C)n1 (racemic) [compound 149] | 67.6 | 5.37 |  |
| CC(=O)Nc1ncc(CN2C[C@@H](Cc3cc(C)nc(C)c3)CC[C@H]2C)s1 (racemic) [compound 166] | 99 | 0.00263 |  |
| CC(=O)Nc1ncc(CN2CCC[C@H](Cc3ccc(C)nc3C#N)C2)s1 [compound 125] | 100 | 0.0017 |  |
| COc1cc(C[C@H]2CCN(Cc3cnc(NC(C)=O)s3)C2)cc(C)n1 [compound 42] | 101 | 0.00832 |  |
| CC(=O)Nc1ncc(CN2CCC(Cc3ccc(C(F)(F)F)cn3)C2)s1 (centres unmarked) [compound 68] |  |  | Enzymatic Emax (%) [2]: 101.5%; Enzymatic hOGA; pIC50 [2]: 7.10 |

| SMILES | Emax [2] [%] | IC50 [2] [µM] | further results |
| --- | --- | --- | --- |
| Cc1cc(C[C@H]2CCN(C(C)c3cc4ccccc4n3C)C2)cc(C)n1 (mixture of isomers) [compound 94] | 30.7 | > 10 |  |
| CC(=O)Nc1ncc(CN2CC(COc3cc(C)nc(C)n3)CC(F)(F)C2)s1 (centres unmarked) [compound 161] | 48 | > 10 |  |
| CC(=O)Nc1ncc(CN2CCC(Cc3ccc(C(F)(F)F)nn3)C2)s1 (centres unmarked) [compound 65] |  |  | Enzymatic Emax (%) [2]: 100%; Enzymatic hOGA; pIC50 [2]: 7.28 |
| Cc1cc(C[C@H]2CCN(Cc3ccc4c(c3)OCCO4)C2)cc(C)n1 [compound 101] |  |  | Enzymatic Emax (%) [2]: 81.7%; Enzymatic hOGA; pIC50 [2]: 5.8 |
| Cc1cc(C[C@H]2CCCN(Cc3nc4ccccc4[nH]3)C2)cc(C)n1 [compound 151] | 2.86 | > 10 |  |
| CC(=O)Nc1ncc(CN2CCC(Cc3cccc(C(C)C)n3)C2)s1 (centres unmarked) [compound 40] | 99.7 | 0.00776 |  |
| CC(=O)Nc1ncc(CN2CCC[C@H](Cc3cc(C)nc(C)c3)[C@@H]2C)s1 (single isomer, unassigned) [compound 171] | 52 | 9.55 |  |
| COc1ccc(C)nc1C[C@H]1CCN(Cc2cnc(NC(C)=O)s2)C1 [compound 57] | 100 | 0.0457 |  |
| Cc1cc(C[C@H]2CCN(Cc3ccc4sc(C)nc4c3)C2)cc(C)n1 [compound 82] |  |  | Enzymatic Emax (%) [2]: 87.4%; Enzymatic hOGA; pIC50 [2]: 5.91 |
| CC(=O)Nc1ncc(CN2CCC[C@H](Cc3cnc(C)c(C)n3)C2)s1 [compound 124] | 100 | 0.00174 |  |
| Cc1cc(C[C@H]2CCN(Cc3ccc4c(c3)OCO4)C2)cc(C)n1 [compound 99] |  |  | Enzymatic Emax (%) [2]: −6.5%; Enzymatic hOGA; pIC50 [2]: <5 |
| CC(=O)Nc1ncc(CN2CCC[C@H](Cc3cc(C)nc(C)c3)C2)n1C [compound 174] | 40.9 | > 10 |  |
| CC(=O)Nc1ncc(CN2CC[C@@H](Cc3ccc(C(F)(F)F)c(C)n3)C2)s1 [compound 36] | 99 | 0.0562 |  |
| Cc1cc(C[C@H]2CCCN(Cc3nc4ccccc4n3C)C2)cc(C)n1 [compound 153] | 23.9 | > 10 |  |
| Cc1cc(C[C@H]2CCCN(Cc3ccc4c(c3)OCO4)C2)cc(C)n1 [compound 146] | 93.5 | 1 |  |
| Cc1cc(C[C@H]2CCN(Cc3ccc4scnc4c3)C2)cc(C)n1 [compound 83] |  |  | Enzymatic Emax (%) [2]: 87.8%; Enzymatic hOGA; pIC50 [2]: 5.79 |
